Test results reported in ChEMBL document CHEMBL1201862, “PubChem BioAssay data set” (2004).
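A five-concentration, 48-hour dose response in 96-well plates underlies each endpoint, interpolated linearly between surrounding concentrations. GI50 marks 50% less growth.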 Active and inactive are the calls of the source. Cut-off read from the data, not from the text of the source: active = GI50 up to about 1.1 µM and inactive = higher. Starred links: 1 amine or outer side, 2 acyl side, 3 side chain; linkers in the order of their positions; H or OH if unused. Non-standard residues stand in square brackets, D forms with d. Residues, ends and D or L forms follow the SMILES beside them. *: point of attachment. X34 = CC(=O)N(C)SCC(N[*:1])C(=O)[*:2]; Cbz = O=C(OCc1ccccc1)*; Bn = c1ccc(C*)cc1; For = O=C*

How the values were obtained:
Assay in all cases: inhibition of tumour cell growth, NCI panel, 48 h
[1] = test system: HL-60
[2] = test system: SNB-75
[3] = test system: SK-MEL-28
[4] = test system: BT-549
[5] = test system: A549
[6] = test system: OVCAR-3
[7] = test system: OVCAR-5
[8] = test system: COLO 205
[9] = test system: NCI/ADR-RES
[10] = test system: MDA-MB-231
[11] = test system: Malme-3M
[12] = test system: MCF7
[13] = test system: NCI-H226
[14] = test system: NCI-H460
[15] = test system: 786-0
[16] = test system: EKVX
[17] = test system: UO-31
[18] = test system: HT-29
[19] = test system: SW-620

Measured: GI50

O=[N+]([O-])c1ccc2c(c1)N=C1OC(c3c[nH]c4ccc(COc5ccccc5)cc34)C(O)=C1N2 (stereo not given)
inactive: [1] 1.74 µM | [2] 25.1 µM | [3] > 100 µM | [4] > 100 µM | [5] > 100 µM | [6] > 100 µM | [7] > 100 µM | [8] 23.2 µM | [9] > 100 µM | [10] 56.6 µM | [11] > 100 µM | [12] 55 µM | [13] > 100 µM | [14] > 100 µM | [15] 53.8 µM | [16] > 100 µM | [17] > 100 µM | [18] > 100 µM | [19] > 100 µM

CC(=O)N(C)SCC(NC(=O)C(Cc1ccccc1)NC(=O)OCc1ccccc1)C(=O)NC(Cc1ccccc1)C(=O)NC(Cc1cn(C=O)c2ccccc12)C(=O)NC(CCCCNC(=O)OCc1ccccc1)C(=O)NC(C(=O)NC(CSN(C)C(C)=O)C(=O)NC(C(N)=O)C(C)OCc1ccccc1)C(C)OCc1ccccc1 (stereo not given) (Cbz-F[X34]FW(For)K(Cbz)T(Bn)[X34]T(Bn)-NH2; configuration not given here)
inactive: [1] > 100 µM | [2] 11.3 µM | [3] > 100 µM | [4] 21.1 µM | [5] > 100 µM | [6] > 100 µM | [7] > 100 µM | [8] > 100 µM | [9] > 100 µM | [10] 14.7 µM | [11] 40.4 µM | [12] > 100 µM | [13] > 100 µM | [14] > 100 µM | [15] 24.1 µM | [16] > 100 µM | [17] 45.7 µM | [18] > 100 µM | [19] > 100 µM

O=C(c1ccc(Cl)cc1)N(C(=S)OC12CC3CC(CC(C3)C1)C2)c1ccccc1
inactive: [1] 17 µM | [2] 42.9 µM | [3] > 100 µM | [4] 43.2 µM | [5] 31.9 µM | [6] 44.6 µM | [7] 45.6 µM | [8] 16.8 µM | [9] 36.5 µM | [10] 29.4 µM | [11] 54.3 µM | [12] 33.3 µM | [13] 30.9 µM | [14] 30 µM | [15] 29.6 µM | [16] 26.6 µM | [17] 27 µM | [18] 32.3 µM | [19] 34.4 µM

O=[N+]([O-])c1ccccc1S(=O)(=O)c1cc(Cl)cc2c1NCCC2
inactive: [1] 31.3 µM | [2] 43.4 µM | [3] 62.8 µM | [4] 26.8 µM | [5] 65.8 µM | [6] > 100 µM | [7] > 100 µM | [8] 33.6 µM | [9] > 100 µM | [10] 34.1 µM | [11] 25.8 µM | [12] 39.4 µM | [13] 45.5 µM | [14] 77.3 µM | [15] 80 µM | [16] > 100 µM | [17] 50.2 µM | [18] 70.3 µM | [19] > 100 µM

CCOP(=O)(OCC)C(C)(CC)NC1=NC(C(F)(F)F)(C(F)(F)F)NC(=O)N1 (stereo not given)
inactive: [1] > 100 µM | [2] > 100 µM | [3] > 100 µM | [4] > 100 µM | [5] > 100 µM | [6] > 100 µM | [7] > 100 µM | [8] > 100 µM | [9] > 100 µM | [10] > 100 µM | [11] > 100 µM | [12] > 100 µM | [13] 11.3 µM | [14] > 100 µM | [15] > 100 µM | [16] > 100 µM | [17] > 100 µM | [18] > 100 µM | [19] > 100 µM

O=C(O)CC1NCc2cc3ccccc3nc21 (stereo not given)
inactive: [1] > 100 µM | [2] > 100 µM | [3] > 100 µM | [4] > 100 µM | [5] > 100 µM | [6] > 100 µM | [7] > 100 µM | [8] > 100 µM | [9] > 100 µM | [10] > 100 µM | [11] > 100 µM | [12] > 100 µM | [13] > 100 µM | [14] > 100 µM | [15] > 100 µM | [16] 61.9 µM | [17] > 100 µM | [18] > 100 µM | [19] > 100 µM

CC(C)C(N)(C(=O)O)c1ccccc1 (stereo not given)
inactive: [1] > 100 µM | [2] > 100 µM | [3] > 100 µM | [4] > 100 µM | [5] > 100 µM | [6] > 100 µM | [7] > 100 µM | [8] > 100 µM | [9] > 100 µM | [10] > 100 µM | [11] > 100 µM | [12] > 100 µM | [13] > 100 µM | [14] > 100 µM | [15] > 100 µM | [16] > 100 µM | [17] > 100 µM | [18] > 100 µM | [19] > 100 µM

COC(=O)C1OC(O[C@H]2CC[C@]3(C)[C@H]4CC=C5[C@@H]6CC(C)(C)CC[C@]6(C(=O)OC)CC[C@@]5(C)[C@]4(C)CC[C@H]3C2(C)C)C(O)C(O)C1O (stereo not given in full)
inactive: [1] 18.1 µM | [2] 17.1 µM | [3] 18.5 µM | [4] 17.8 µM | [5] 7.14 µM | [6] 4.34 µM | [7] 14.6 µM | [8] 16.1 µM | [9] 15.8 µM | [10] 4.45 µM | [11] 21 µM | [12] 12.5 µM | [13] 18.3 µM | [14] 8.38 µM | [15] 6.73 µM | [16] 12.4 µM | [17] 19.3 µM | [18] 10.5 µM | [19] 17 µM

N#CC1N(C(=O)c2ccc(F)cc2)c2ccccc2N1C(=O)c1ccc(F)cc1
inactive: [1] 40.3 µM | [2] 30.7 µM | [3] 43.9 µM | [4] 24.9 µM | [5] > 100 µM | [6] 19.9 µM | [7] > 100 µM | [8] 21.8 µM | [9] 26.7 µM | [10] 46.7 µM | [11] 68.9 µM | [12] 33 µM | [13] 31.1 µM | [14] 38.2 µM | [15] 74.5 µM | [16] 44.4 µM | [17] 37.7 µM | [18] 33 µM | [19] 47.9 µM

O=C(CC(NC(=O)C(F)(F)F)C(=O)O)OCc1ccccc1 (stereo not given)
inactive: [1] > 100 µM | [2] > 100 µM | [3] > 100 µM | [4] > 100 µM | [5] > 100 µM | [6] > 100 µM | [7] > 100 µM | [8] > 100 µM | [9] > 100 µM | [10] > 100 µM | [11] > 100 µM | [12] > 100 µM | [13] > 100 µM | [14] > 100 µM | [15] > 100 µM | [16] > 100 µM | [17] > 100 µM | [18] > 100 µM | [19] > 100 µM
